Test results taken from PubChem BioAssay (NCI).
“And” between values parts separate entries of the source, which are not always exact repeats. Equal entries are not always repeated.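 These data come from cells grown in 96-well plates and exposed to compound for 48 hours at five concentrations. GI50 is the concentration that inhibits growth by half. TGI: concentration producing complete growth inhibition.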

Key:
Test in all cases: inhibition of tumour cell growth, NCI panel, 48 h
U251 CNS = system: U251 CNS
SK-MEL-5 melanoma = system: SK-MEL-5 melanoma
OVCAR-4 ovarian = system: OVCAR-4 ovarian
KM12 colon = system: KM12 colon
HCC-2998 colon = system: HCC-2998 colon
NCI-H460 lung = system: NCI-H460 lung
HT29 colon = system: HT29 colon
UACC-257 melanoma = system: UACC-257 melanoma
NCI-H23 lung = system: NCI-H23 lung
HOP-92 NSCLC = system: HOP-92 NSCLC

| SMILES | GI50 (U251 CNS) [µM] | TGI (U251 CNS) | GI50 (SK-MEL-5 melanoma) [µM] | TGI (SK-MEL-5 melanoma) | GI50 (OVCAR-4 ovarian) [µM] | TGI (OVCAR-4 ovarian) | GI50 (KM12 colon) [µM] | TGI (KM12 colon) | GI50 (HCC-2998 colon) [µM] | TGI (HCC-2998 colon) | GI50 (NCI-H460 lung) [µM] | TGI (NCI-H460 lung) [µM] | GI50 (HT29 colon) [µM] | TGI (HT29 colon) [µM] | GI50 (UACC-257 melanoma) [µM] | TGI (UACC-257 melanoma) | GI50 (NCI-H23 lung) [µM] | TGI (NCI-H23 lung) | GI50 (HOP-92 NSCLC) [µM] | TGI (HOP-92 NSCLC) [µM] |
| --- | --- | --- | --- | --- | --- | --- | --- | --- | --- | --- | --- | --- | --- | --- | --- | --- | --- | --- | --- | --- |
| C=C1C(=O)O[C@@H]2C[C@@H]1CC[C@]1(C)O[C@H]1CC[C@@]1(C)O[C@@H]1CC[C@@]2(C)O | 42.8 | > 100 µM | 14 | 34.8 µM | 13.7 | 33.1 µM | > 100 | > 100 µM | 6.49 | 24.4 µM | > 100 | > 100 | 24.7 | 87.6 | 61.9 | > 100 µM |  |  |  |  |
| CC(C)(C)[OH+][O-].[O-]c1ccc(Cl)cc1C=Nc1ccc(Cl)cc1[O-].[O]=[V] | 20.2 | 69.2 µM | 13 | 26.3 µM |  |  | 10.8 | 32 µM | 11.2 | 25.7 µM | 18 | 46.3 | 21.9 | 67.3 | 13.9 | 36.4 µM | 20.4 | 66.9 µM | 28.7 | > 100 |
| CCOC(=N)CC(=O)Nc1ccc(Cl)cc1 |  | > 100 µM |  | > 100 µM |  | > 100 µM |  | > 100 µM |  | > 100 µM |  | > 100 |  | > 100 |  | > 100 µM |  | > 100 µM |  |  |
| C/C(=N\NC(=S)N1CCCCCC1)c1nccnc1C |  | > 100 µM |  | 12.2 µM |  | > 100 µM |  | > 100 µM |  | > 100 µM |  |  |  | > 100 |  | 1.77 µM |  |  |  |  |
| CC(O)C1OC(O)C2OC(C)(C)OC12 (stereo not given) |  | > 100 µM |  | > 100 µM |  | > 100 µM |  | > 100 µM |  |  |  | > 100 |  | > 100 |  | > 100 µM |  | > 100 µM |  |  |
| O=P(c1ccccc1)(c1ccccc1)C1CC=C(c2ccccc2)C2(CCCC2)C1 (stereo not given) |  | > 100 µM |  | > 100 µM |  | > 100 µM |  | > 100 µM |  |  |  | > 100 |  | > 100 |  | > 100 µM |  | > 100 µM |  | 67.5 |
| COc1ccc2[nH]cc(CCNC(C)=O)c2c1 |  | > 100 µM |  | > 100 µM |  | > 100 µM |  | > 100 µM |  |  |  | > 100 |  | > 100 |  | > 100 µM |  | > 100 µM |  | > 100 |
| CCCN1C(=O)C/C(=C\C(C)=O)Nc2ccccc21 |  | > 100 µM |  | > 100 µM |  | > 100 µM |  | > 100 µM |  | > 100 µM |  | > 100 |  | > 100 |  |  |  | > 100 µM |  | > 100 |
| CN(C)/[N+]([O-])=N/Oc1cc(Nc2cccc(C(=O)O)c2)c([N+](=O)[O-])cc1[N+](=O)[O-] | 35.3 | > 100 µM | 81.4 | > 100 µM |  |  | 86.7 | > 100 µM |  |  | > 100 | > 100 | > 100 | > 100 | > 100 | > 100 µM | 69.5 | > 100 µM |  |  |
| O=C1NC(=O)C(C(=O)C(=O)Nc2ccc(Br)cc2)C(=O)N1 |  | > 100 µM |  | > 100 µM |  | > 100 µM |  |  |  | > 100 µM |  |  |  | > 100 |  | > 100 µM |  | > 100 µM |  | > 100 |
| COC(=O)c1c[nH]cc1CCc1c[nH]cc1C(=O)OC |  | > 100 µM |  |  |  | > 100 µM |  | > 100 µM |  | > 100 µM |  | > 100 |  | > 100 |  | > 100 µM |  | > 100 µM |  | > 100 |
| COc1cc(Nc2cnc3cc(C(F)(F)F)ccc3n2)cc(OC)c1OC |  | > 100 µM |  |  |  |  |  |  |  | > 100 µM |  | > 100 |  | > 100 |  | > 100 µM |  | > 100 µM |  | > 100 |
| Cc1cc2c(cc1C)NC(=O)C(NC(=O)/C=C/c1ccccc1)C=N2 (stereo not given) |  | 70.2 µM |  | > 100 µM |  | > 100 µM |  | 55.4 µM |  | > 100 µM |  | > 100 |  |  |  | 82.9 µM |  |  |  |  |
| CCC/C(=N\NC(=S)N1CCN(c2ccccn2)CC1)c1ccccn1 |  | 0.48 µM and 1.38 µM |  | 2.41 µM and 1.57 µM | 0.0398 | > 5.77 µM and 2.31 µM |  | 0.64 µM and 1.52 µM | 0.0462 | 1.64 µM and 1.59 µM |  | > 4.19 |  | > 5.39 |  | 0.224 µM and 1.87 µM |  | > 10 µM and 2.43 µM |  |  |
| C/C(CN1C(=O)c2ccccc2C1=O)=N\NS(=O)(=O)c1cccc([N+](=O)[O-])c1 |  | > 100 µM |  | > 100 µM |  | > 100 µM |  | > 100 µM |  | > 100 µM |  | > 100 |  | > 100 |  | > 100 µM |  | > 100 µM |  |  |
| O=C1c2ccccc2-c2c1c1ccccc1c(=O)n2CCCNCCCn1c2c(c3ccccc3c1=O)C(=O)c1ccccc1-2 | 1.12 | 2.67 µM | 7.21 | 16.9 µM | 3.2 | 9.57 µM | 2.9 | 9.65 µM | 6.82 | 17.7 µM | 2.31 | > 17.7 | 0.997 | > 50 | 10.2 | 25.7 µM | 10.4 | > 29.7 µM |  |  |
| Oc1cccc2c1NC1=C(CCC/C1=C\c1ccccc1)C2 |  | > 100 µM |  | > 100 µM |  |  |  | > 100 µM |  | > 100 µM |  | > 100 |  | > 100 |  | > 100 µM |  | > 100 µM |  |  |
| CC(=O)Nc1ccc(/C=C(\NC(=O)c2ccccc2)c2nc3ccc4c(c3[nH]2)C(=O)c2ccccc2C4=O)cc1 |  | > 100 µM |  | > 100 µM |  | > 100 µM |  |  |  | > 100 µM |  |  |  | > 100 |  | > 100 µM |  | > 100 µM |  | > 100 |
| CCNc1nnc(CSc2nc(-c3ccccc3)c(-c3ccccc3)[nH]2)s1 |  | 26.9 µM |  | 24.1 µM |  | > 100 µM |  | 23.9 µM |  |  |  | 59.2 |  | 37.9 |  | 34.9 µM |  | 65.3 µM |  | 41.9 |
| Cn1ncc(=S)[nH]c1=S |  | > 100 µM |  |  |  | > 100 µM |  |  |  |  |  | > 100 |  |  |  |  |  | > 100 µM |  | > 100 |
| CN(C)c1ccc(-c2cc(=O)c3ccccc3[nH]2)cc1 |  | > 100 µM |  |  |  |  |  | > 100 µM |  | > 100 µM |  | > 100 |  | > 100 |  | > 100 µM |  | > 100 µM |  |  |
